# Experimental data from patent US7148028B2, “Methods and means relating to atherosclerosis” (priority 2001, dated 2006).
# Values joined by “and” are separate entries in the source; they are usually repeats but may differ in a detail not shown here. Identical values can stand only once. “Also recorded” adds a separate entry of the source. Counter-ions that a name gives are not always drawn. Like-named read-outs stand apart in the source and are kept apart here.
# Key:
# anti-Chlamydia abzymes [1] = assay type: in vivo, human; settings: for abzyme activity of individuals, + aspirin: self-reported aspirin takers, one value per individual
# anti-Chlamydia abzymes [2] = assay type: biochemical, human; parameters: key to In-vitro Inhibition: + = inhibition; − = no inhibition
# [3] = Clinical condition, modified Rose-Blackburn Questionnaire; assay type: in vivo, human
# From the text: The progression of the clinical condition of the patients was monitored by the use of the modified Bruce Protocol for treadmill exercise/stress ECG testing and on the Rose-Blackburn Questionnaire (Cardiovascular Survey Methods. WHO, Geneva, 1968)
# [4] = tested on: Chlamydia pneumoniae or Chlamydia Psittaci; assay type: biochemical
# lesion IgG = experiment: LDL peroxidation by lesion IgG (MDA); assay type: biochemical, human
# [5] = 10 μM of each agent, control 24.3
molecule,measurement,setting,value
"CC(=O)Oc1ccccc1C(=O)O [Aspirin, acetylsalicylic acid]",abzyme activity after a week,"anti-Chlamydia abzymes [1]; 250 mg aspirin daily, the other two CHD patients",undetectably low level
same,"abzyme activity, aspirin alone","anti-Chlamydia abzymes [1]; Therapy Group D, 250 mg daily",reduction in the abzyme activity but to a lesser degree than observed with the combination
same,"individuals positive for abzymes / individuals, + aspirin",anti-Chlamydia abzymes [1]; stable angina class I,1/6
same,"percentage positive for abzymes, + aspirin",anti-Chlamydia abzymes [1]; stable angina class I,17%
same,"abzyme activity, group mean, + aspirin","anti-Chlamydia abzymes [1]; stable angina class I, n = 6, without aspirin 30.0",10.0
same,"abzyme activity of individuals, + aspirin",anti-Chlamydia abzymes [1]; stable angina class I,5 and 45 and 0 (3×) and 10
same,"individuals positive for abzymes / individuals, + aspirin",anti-Chlamydia abzymes [1]; stable angina class II,4/15
same,"percentage positive for abzymes, + aspirin",anti-Chlamydia abzymes [1]; stable angina class II,27%
same,"abzyme activity, group mean, + aspirin","anti-Chlamydia abzymes [1]; stable angina class II, n = 15, without aspirin 32.2",9.2
same,"abzyme activity of individuals, + aspirin",anti-Chlamydia abzymes [1]; stable angina class II,5 (4×) and 10 (2×) and 0 (4×) and 25 and 3.3 and 30
same,"individuals positive for abzymes / individuals, + aspirin",anti-Chlamydia abzymes [1]; stable angina class III,6/10
same,"percentage positive for abzymes, + aspirin",anti-Chlamydia abzymes [1]; stable angina class III,60%
same,"abzyme activity of individuals, + aspirin",anti-Chlamydia abzymes [1]; stable angina class III,0 (3×) and 45 and 5 and 35 and 15 and 30 and 20
same,"individuals positive for abzymes / individuals, + aspirin",anti-Chlamydia abzymes [1]; unstable angina IV,6/7
same,"percentage positive for abzymes, + aspirin",anti-Chlamydia abzymes [1]; unstable angina IV,86%
same,"abzyme activity of individuals, + aspirin",anti-Chlamydia abzymes [1]; unstable angina IV,130 and 70 and 0 and 37 and 90 and 100 and 180
same,Result (inhibition of anti-Chlamydia abzymes),anti-Chlamydia abzymes [2]; 10 μM of each agent,Positive
same,Lipid oxidising activity of anti-Chlamydia abzymes,anti-Chlamydia abzymes [2]; [5],6.2 μM MDA/ml
CC[C@H]1OC(=O)[C@H](C)[C@@H](O[C@H]2C[C@@](C)(OC)[C@@H](O)[C@H](C)O2)[C@H](C)[C@@H](O[C@@H]2O[C@H](C)C[C@H](N(C)C)[C@H]2O)[C@](C)(O)C[C@@H](C)CN(C)[C@H](C)[C@@H](O)[C@]1(C)O [Azithromycin],Abzyme activity after 15 days / two weeks,"anti-Chlamydia abzymes [1]; Example 8, stable angina patients",reduced abzyme activity
same,"Anti-Chlamydia abzyme activity, 45 days, group mean","anti-Chlamydia abzymes [1]; Therapy Group A, before 47.5",7.4 μM MDA/ml
same,"Anti-Chlamydia abzyme activity, 60 days, group mean","anti-Chlamydia abzymes [1]; Therapy Group A, before 47.5",1.6 μM MDA/ml
same,Clinical condition After 15 days of treatment,"[3]; Table 17, anti-microbial agent only, single patients",angina class II;; also recorded: Stable condition;
same,"Score by modified Rose-Blackburn Questionnaire, 60 days after start of the treatment, group mean","[3]; before: A 19.4 ± 1.79, B 20.4 ± 1.24, C 18.6 ± 0.81",14.4 ± 1.14
same,in vitro inhibition of abzyme activity,anti-Chlamydia abzymes [2],strong in vitro inhibitor of abzyme activity
same,Lipid oxidising activity of anti-Chlamydia abzymes,"anti-Chlamydia abzymes [2]; in DMSO, 5 μM, control 61, DMSO effect deducted",0 μM MDA/ml
CCN(CC)C(=S)S [DDC],In-vitro Inhibition,anti-Chlamydia abzymes [2],+
same,Result (inhibition of anti-Chlamydia abzymes),anti-Chlamydia abzymes [2]; 10 μM of each agent,Positive
same,Lipid oxidising activity of anti-Chlamydia abzymes,anti-Chlamydia abzymes [2]; [5],0 μM MDA/ml
C[S+](C)[O-] [DMSO],development of lipid oxidation reaction after treatment of Chlamydia with chaotropic agents,[4],completely abrogated
same,Level of MDA production by 0.82 μg of lesion IgG,"lesion IgG; +1% antioxidant, LDL 480 μg of protein, control 0.49 ± 0.023",0 µM
O=C(O)CN(CCN(CC(=O)O)CC(=O)O)CCN(CC(=O)O)CC(=O)O [DTPA],Result (inhibition of anti-Chlamydia abzymes),anti-Chlamydia abzymes [2]; 10 μM of each agent,Negative
O=[N+]([O-])OCC(CO[N+](=O)[O-])O[N+](=O)[O-] [Glyceryl Trinitrate],Anti-Abzyme accivity,"anti-Chlamydia abzymes [2]; 4.4 μM, control 21.7",0 μM MDA/ml
same,Anti-Abzyme accivity,"anti-Chlamydia abzymes [2]; 22 μM, control 21.7",0 μM MDA/ml
same,Anti-Abzyme accivity,"anti-Chlamydia abzymes [2]; 44 μM, control 21.7",0 μM MDA/ml
same,Anti-Abzyme accivity,"anti-Chlamydia abzymes [2]; 220 μM, control 21.7",0 μM MDA/ml
O=[N+]([O-])O[C@H]1CO[C@H]2[C@@H]1OC[C@H]2O[N+](=O)[O-] [Isosorbide Dinitrate],Anti-Abzyme accivity,"anti-Chlamydia abzymes [2]; 42 μM, control 21.7",0 μM MDA/ml
same,Anti-Abzyme accivity,"anti-Chlamydia abzymes [2]; 211 μM, control 21.7",0 μM MDA/ml
CCC[C@@H]1C[C@@H](C(=O)N[C@@H]([C@H]2O[C@H](SC)[C@H](O)[C@@H](O)[C@H]2O)[C@@H](C)O)N(C)C1 [Lincomycin Hydrochloride],Anti-Abzyme accivity,"anti-Chlamydia abzymes [2]; 6.5 μM, control 21.7",28.5 μM MDA/ml
same,Anti-Abzyme accivity,"anti-Chlamydia abzymes [2]; 13 μM, control 21.7",30.3 μM MDA/ml
[N-]=[N+]=[N-].[Na+] [NaN1],Result (inhibition of anti-Chlamydia abzymes),anti-Chlamydia abzymes [2]; 10 μM of each agent,Positive
same,Lipid oxidising activity of anti-Chlamydia abzymes,anti-Chlamydia abzymes [2]; [5],0 μM MDA/ml
CC(C)(S)[C@@H](N)C(=O)O [Penicillamine],Result (inhibition of anti-Chlamydia abzymes),anti-Chlamydia abzymes [2]; 10 μM of each agent,Positive
same,Lipid oxidising activity of anti-Chlamydia abzymes,anti-Chlamydia abzymes [2]; [5],0 μM MDA/ml
O=C(O)c1ccccn1 [Picolinic acid],Result (inhibition of anti-Chlamydia abzymes),anti-Chlamydia abzymes [2]; 10 μM of each agent,Positive
same,Lipid oxidising activity of anti-Chlamydia abzymes,anti-Chlamydia abzymes [2]; [5],0 μM MDA/ml
CC(C)NCC(O)COc1cccc2ccccc12 (stereo not shown) [Propranolol Hydrochloride],Anti-Abzyme accivity,anti-Chlamydia abzymes [2]; Hydrochloride,21.3 μM MDA/ml and 18.3 μM MDA/ml
CCCCCCCCCCCCOS(=O)(=O)[O-].[Na+] [SDS],lipid oxidising reaction with treated Chlamydia samples,[4],no lipid oxidising reaction
N.N.O=S(=O)(O)O [ammonium sulphate],lipid oxidising reaction with treated Chlamydia samples,[4],no lipid oxidising reaction
O=C(O)c1ccccc1 [benzoic acid],Level of MDA production by 0.82 μg of lesion IgG,lesion IgG; pH 5.6,0 µM
C=O [formalin],lipid oxidising reaction with treated Chlamydia samples,[4],no lipid oxidising reaction
O=C[O-].[Na+] [sodium formate],Level of MDA production by 0.82 μg of lesion IgG,"lesion IgG; +0.1 M antioxidant, LDL 480 μg of protein, 16 h 37° C. pH 5.6, control 0.49 ± 0.023",0 µM
Heparin,Anti-Abzyme accivity,"anti-Chlamydia abzymes [2]; 0.1 mg/ml, control 21.7",19.7 μM MDA/ml
Igepal CA-630,development of lipid oxidation reaction after treatment of Chlamydia with chaotropic agents,[4],completely abrogated
same,oxidation of the lipids in the bacteria by the extracted abzymes after detergent treatment,[4],abolished
Nadroparin Calcium,Anti-Abzyme accivity,"anti-Chlamydia abzymes [2]; 5 UI, control 21.7",20.5 μM MDA/ml
same,Anti-Abzyme accivity,"anti-Chlamydia abzymes [2]; 65 UI, control 21.7",12.8 μM MDA/ml
Triton X-100,development of lipid oxidation reaction after treatment of Chlamydia with chaotropic agents,[4],completely abrogated
same,oxidation of the lipids in the bacteria by the extracted abzymes after detergent treatment,[4],abolished
